{
  "source": "patent US20200392497A1",
  "about": "“METHODS AND COMPOSITIONS FOR DETECTING AND PROMOTING CARDIOLIPIN REMODELING AND CARDIOMYOCYTE MATURATION AND RELATED METHODS OF TREATING MITOCHONDRIAL DYSFUNCTION” (University of Washington, priority 2017, published 2020)",
  "tested_on": "HADHA Mut CMs",
  "test": "Seahorse MitoStress assay, proton leak in fatty acid challenged HADHA Mut CMs",
  "type": "cell-based, human",
  "conditions": "1 nM, 12D Glc+FA media, vs non-treated Mut CMs",
  "text": "To better understand the pathological state of HADHA Mut and KO CMs exposed to chronic FAs, their mitochondria were functionally assessed. […] Because exposure to FAs led to a reduction in mitochondrial membrane potential and reduced ATP production, it was postulated that this may be due in part to an increased proton leak.\nThe Seahorse XF96 extracellular flux analyzer was used to assess mitochondrial function as previously described [Kuppusamy, K. T., et al., Let-7 family of microRNA is required for maturation and adult-like metabolism in stem cell-derived cardiomyocytes. Proc Natl Acad Sci U.S.A., 2015]. The plates were pre-treated with 1:60 diluted Matrigel reduced growth factor (Corning). […] The OCR values were further normalized to the number of cells present in each well, quantified by the Hoechst staining (Hoechst 33342; Sigma-Aldrich) as measured using fluorescence at 355 nm excitation and 460 nm emission. […] ATP production was calculated as the difference between the basal respiration and respiration after oligomycin. Proton leak was calculated as the difference between respiration after oligomycin and after antimycin & rotenone. Cellular capacity to utilize palmitate as an energy source was calculated as the difference between the average OCR after second palmitate addition and the final respiration value before the second addition of palmitate. […]",
  "data": [
    {"substance": "elamipretide [SS-31]", "values": [
      {"measurement": "proton leak (OCR after oligomycin minus OCR after antimycin & rotenone)", "value": "significantly lower"},
      {"measurement": "proton leak (OCR after oligomycin minus OCR after antimycin & rotenone)", "setting": "listed as elamipretide (SS-31)", "value": "rescued the increased proton leak"}
    ]}
  ]
}
